Assay results from ChEMBL document CHEMBL3407489, “Bis-aryl urea derivatives as potent and selective LIM kinase (Limk) inhibitors” (J Med Chem, 2015).

How the values were obtained:
LIM domain kinase 1 [1] = target: T1, LIM domain kinase 1 (Homo sapiens, UniProt P53667); assay: Inhibition of Limk1 (unknown origin)
CYP2D6 = CYP2D6 (Homo sapiens, UniProt P10635); assay: Inhibition of CYP2D6 (unknown origin) assessed as reduction in bufuralol hydroxylation to […] at 10 uM; assay type: ADME; conditions: probe bufuralol
Liver microsome [2] = assay: Half life in human liver microsomes; assay type: ADME
Liver microsome [3] = assay: Half life in rat liver microsomes; assay type: ADME
CYP1A2 = target: T2, CYP1A2 (Homo sapiens, UniProt P05177); assay: Inhibition of CYP1A2 (unknown origin) assessed as reduction in phenaceten demethylation to acetaminophen at 10 uM; assay type: ADME
T2 sequence (P05177 whole entry): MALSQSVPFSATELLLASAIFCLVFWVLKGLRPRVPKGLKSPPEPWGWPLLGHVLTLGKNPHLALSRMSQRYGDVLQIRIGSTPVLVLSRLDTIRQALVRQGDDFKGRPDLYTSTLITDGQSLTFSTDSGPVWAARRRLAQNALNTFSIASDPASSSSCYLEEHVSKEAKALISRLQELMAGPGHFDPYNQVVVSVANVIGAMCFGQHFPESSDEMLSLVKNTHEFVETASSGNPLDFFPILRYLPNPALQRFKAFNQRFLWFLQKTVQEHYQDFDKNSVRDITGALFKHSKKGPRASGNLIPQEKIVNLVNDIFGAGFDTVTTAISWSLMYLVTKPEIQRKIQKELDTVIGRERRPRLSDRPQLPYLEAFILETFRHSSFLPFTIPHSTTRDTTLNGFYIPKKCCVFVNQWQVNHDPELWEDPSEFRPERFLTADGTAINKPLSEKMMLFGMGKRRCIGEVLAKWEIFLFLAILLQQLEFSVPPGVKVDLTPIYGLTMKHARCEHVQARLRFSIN

LIM domain kinase 1 [4] = target: LIM domain kinase 1 (Rattus norvegicus, UniProt P53669); assay: Inhibition of Limk1 in rat A7r5 cells assessed as reduction in cofilin phosphorylation by Western blot method; assay type: cell-based
LIM domain kinase 1 [5] = target: T1, LIM domain kinase 1
Description: Inhibition of human Limk1 using cofilin substrate, ATP and [gamma33P]ATP

CYP3A4 = CYP3A4 (Homo sapiens, UniProt P08684); assay: Inhibition of CYP3A4 (unknown origin) assessed as reduction in midazolam hydroxylation to 1'-Hydroxymidazolam at 10 uM; assay type: ADME; conditions: probe midazolam
[6] = Oral bioavailability in Sprague-Dawley rat at 2 mg/kg by LC-MS/MS and HPLC method; assay type: ADME, organism-based; conditions: in vivo
[7] = Volume of distribution in Sprague-Dawley rat at 1 mg/kg, iv by LC-MS/MS and HPLC method; assay type: ADME, organism-based; parameters: dose 1 mg/kg, route intravenous; conditions: in vivo
PC-3 [8] = assay: cells; conditions: Homo sapiens, PC-3, 24 h, read-out: INH
Description: Inhibition of cell migration of human PC3 cells at 0.1 uM after 24 hrs wound healing assay

PC-3 [9] = assay: cells; conditions: Homo sapiens, PC-3, 24 h, read-out: INH; remark: listed apart in the source
Description: Inhibition of cell migration of human PC3 cells at 10 uM after 24 hrs wound healing assay

PC-3 [10] = assay: cells; conditions: Homo sapiens, PC-3, 24 h, read-out: INH; remark: listed apart in the source
Description: Inhibition of cell migration of human PC3 cells at 1 uM after 24 hrs wound healing assay

PC-3 [11] = assay: cells; conditions: Homo sapiens, PC-3, 48 h, read-out: INH
Description: Inhibition of cell invasion of human PC3 cells at 1 uM after 48 hrs by hematoxylin staining based transwell chamber assay

CYP2C9 = CYP2C9 (Homo sapiens, UniProt P11712); assay: Inhibition of CYP2C9 (unknown origin) assessed as reduction in tolbutamide hydroxylation to hydrocytolbutamide at 10 uM; assay type: ADME
[12] = target: Rho-associated protein kinase 2 (Homo sapiens, UniProt O75116)
Chain of Rho-associated protein kinase 2 (O75116 whole entry): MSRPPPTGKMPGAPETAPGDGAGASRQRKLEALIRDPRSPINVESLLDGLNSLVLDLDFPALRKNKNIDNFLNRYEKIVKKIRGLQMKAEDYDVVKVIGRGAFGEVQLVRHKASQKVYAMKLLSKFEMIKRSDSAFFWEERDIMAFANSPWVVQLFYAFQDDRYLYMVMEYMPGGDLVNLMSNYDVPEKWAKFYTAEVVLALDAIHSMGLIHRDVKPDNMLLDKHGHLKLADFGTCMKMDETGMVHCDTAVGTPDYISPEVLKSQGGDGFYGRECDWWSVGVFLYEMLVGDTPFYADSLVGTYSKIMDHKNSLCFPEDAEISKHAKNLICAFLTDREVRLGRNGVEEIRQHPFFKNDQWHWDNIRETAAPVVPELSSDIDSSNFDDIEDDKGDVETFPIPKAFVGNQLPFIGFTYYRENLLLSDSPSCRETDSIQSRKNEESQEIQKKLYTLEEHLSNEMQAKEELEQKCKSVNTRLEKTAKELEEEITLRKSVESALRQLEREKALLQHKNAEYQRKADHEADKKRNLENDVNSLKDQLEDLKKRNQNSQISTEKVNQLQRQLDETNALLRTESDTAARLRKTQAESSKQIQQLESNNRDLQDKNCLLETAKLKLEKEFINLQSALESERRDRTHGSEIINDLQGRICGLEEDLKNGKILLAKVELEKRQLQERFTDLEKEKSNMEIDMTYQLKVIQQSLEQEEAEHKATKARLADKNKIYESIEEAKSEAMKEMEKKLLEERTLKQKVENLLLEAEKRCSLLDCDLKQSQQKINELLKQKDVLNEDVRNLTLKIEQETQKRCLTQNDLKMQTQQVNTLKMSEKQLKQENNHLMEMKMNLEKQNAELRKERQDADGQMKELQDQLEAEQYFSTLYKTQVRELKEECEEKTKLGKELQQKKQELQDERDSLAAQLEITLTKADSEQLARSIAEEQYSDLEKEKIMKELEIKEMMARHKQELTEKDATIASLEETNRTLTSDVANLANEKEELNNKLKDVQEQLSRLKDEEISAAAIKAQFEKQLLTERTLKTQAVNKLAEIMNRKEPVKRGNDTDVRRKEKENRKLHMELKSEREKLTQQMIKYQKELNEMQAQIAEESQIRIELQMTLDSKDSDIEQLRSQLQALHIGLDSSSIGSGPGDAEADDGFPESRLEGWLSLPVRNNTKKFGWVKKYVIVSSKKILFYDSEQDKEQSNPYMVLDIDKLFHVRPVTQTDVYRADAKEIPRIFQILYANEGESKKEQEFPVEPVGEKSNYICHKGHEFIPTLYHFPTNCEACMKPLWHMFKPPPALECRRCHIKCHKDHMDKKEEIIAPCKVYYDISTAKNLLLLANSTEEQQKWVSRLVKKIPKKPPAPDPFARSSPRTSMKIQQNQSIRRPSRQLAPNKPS

Chain of CYP2C9 (P11712 whole entry): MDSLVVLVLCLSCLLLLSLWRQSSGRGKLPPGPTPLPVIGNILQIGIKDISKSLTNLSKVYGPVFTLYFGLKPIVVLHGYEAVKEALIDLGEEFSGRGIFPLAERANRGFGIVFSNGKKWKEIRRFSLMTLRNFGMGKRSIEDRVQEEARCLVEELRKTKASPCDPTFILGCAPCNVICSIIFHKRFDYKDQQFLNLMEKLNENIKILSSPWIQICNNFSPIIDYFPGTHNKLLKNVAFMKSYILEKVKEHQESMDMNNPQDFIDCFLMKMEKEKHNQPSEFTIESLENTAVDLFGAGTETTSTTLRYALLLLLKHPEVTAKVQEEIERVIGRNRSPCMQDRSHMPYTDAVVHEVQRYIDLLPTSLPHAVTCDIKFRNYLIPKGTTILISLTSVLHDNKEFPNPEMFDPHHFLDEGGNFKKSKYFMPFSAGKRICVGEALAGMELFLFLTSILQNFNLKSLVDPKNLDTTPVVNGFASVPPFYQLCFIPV
Chain of CYP3A4 (P08684 whole entry): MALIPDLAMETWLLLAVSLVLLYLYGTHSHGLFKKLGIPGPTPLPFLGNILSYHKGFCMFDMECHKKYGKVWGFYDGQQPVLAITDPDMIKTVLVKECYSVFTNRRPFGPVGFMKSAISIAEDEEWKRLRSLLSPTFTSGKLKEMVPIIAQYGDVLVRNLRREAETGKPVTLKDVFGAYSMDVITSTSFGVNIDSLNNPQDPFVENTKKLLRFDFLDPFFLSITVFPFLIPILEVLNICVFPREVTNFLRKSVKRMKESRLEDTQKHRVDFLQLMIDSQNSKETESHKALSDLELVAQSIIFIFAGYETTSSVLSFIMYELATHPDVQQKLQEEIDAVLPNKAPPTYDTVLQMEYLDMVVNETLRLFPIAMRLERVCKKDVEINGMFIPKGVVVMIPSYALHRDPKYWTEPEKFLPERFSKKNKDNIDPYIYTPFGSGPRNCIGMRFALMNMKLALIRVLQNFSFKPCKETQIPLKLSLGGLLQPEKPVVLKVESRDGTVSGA
T1 sequence (P53667 whole entry, the tested form may be a part): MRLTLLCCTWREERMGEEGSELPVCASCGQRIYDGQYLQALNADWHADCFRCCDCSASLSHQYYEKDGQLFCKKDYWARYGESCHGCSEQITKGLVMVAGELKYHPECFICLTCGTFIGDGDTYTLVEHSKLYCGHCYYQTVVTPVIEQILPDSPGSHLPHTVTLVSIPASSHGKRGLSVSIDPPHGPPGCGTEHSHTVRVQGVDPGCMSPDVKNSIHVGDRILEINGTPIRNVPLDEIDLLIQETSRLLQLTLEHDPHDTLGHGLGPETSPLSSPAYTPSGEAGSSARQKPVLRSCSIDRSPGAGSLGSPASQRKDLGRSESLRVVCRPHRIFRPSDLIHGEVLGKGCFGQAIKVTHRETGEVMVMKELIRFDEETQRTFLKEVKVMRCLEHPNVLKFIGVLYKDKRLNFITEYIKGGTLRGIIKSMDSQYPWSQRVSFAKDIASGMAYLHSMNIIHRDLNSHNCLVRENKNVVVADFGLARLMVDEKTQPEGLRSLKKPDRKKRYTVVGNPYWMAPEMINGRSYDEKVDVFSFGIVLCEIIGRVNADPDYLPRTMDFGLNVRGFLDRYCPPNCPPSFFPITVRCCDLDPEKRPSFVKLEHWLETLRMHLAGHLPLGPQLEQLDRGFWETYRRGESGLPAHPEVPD
Chain of CYP2D6 (P10635 whole entry): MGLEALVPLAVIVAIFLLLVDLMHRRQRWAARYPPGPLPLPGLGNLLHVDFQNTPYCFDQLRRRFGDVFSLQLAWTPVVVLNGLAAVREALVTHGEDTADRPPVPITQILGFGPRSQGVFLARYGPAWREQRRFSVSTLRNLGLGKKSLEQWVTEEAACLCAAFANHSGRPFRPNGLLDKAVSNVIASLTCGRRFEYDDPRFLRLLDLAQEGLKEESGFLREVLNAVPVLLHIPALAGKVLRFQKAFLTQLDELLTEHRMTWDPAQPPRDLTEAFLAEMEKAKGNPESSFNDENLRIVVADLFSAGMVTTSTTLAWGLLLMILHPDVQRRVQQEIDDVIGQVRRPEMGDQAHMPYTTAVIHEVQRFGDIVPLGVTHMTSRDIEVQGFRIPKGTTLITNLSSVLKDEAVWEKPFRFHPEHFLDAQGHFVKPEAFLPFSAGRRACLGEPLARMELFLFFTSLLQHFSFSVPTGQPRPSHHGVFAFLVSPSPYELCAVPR
Chain of LIM domain kinase 1 (Rattus norvegicus, UniProt P53669) (P53669 whole entry, the tested form may be a part): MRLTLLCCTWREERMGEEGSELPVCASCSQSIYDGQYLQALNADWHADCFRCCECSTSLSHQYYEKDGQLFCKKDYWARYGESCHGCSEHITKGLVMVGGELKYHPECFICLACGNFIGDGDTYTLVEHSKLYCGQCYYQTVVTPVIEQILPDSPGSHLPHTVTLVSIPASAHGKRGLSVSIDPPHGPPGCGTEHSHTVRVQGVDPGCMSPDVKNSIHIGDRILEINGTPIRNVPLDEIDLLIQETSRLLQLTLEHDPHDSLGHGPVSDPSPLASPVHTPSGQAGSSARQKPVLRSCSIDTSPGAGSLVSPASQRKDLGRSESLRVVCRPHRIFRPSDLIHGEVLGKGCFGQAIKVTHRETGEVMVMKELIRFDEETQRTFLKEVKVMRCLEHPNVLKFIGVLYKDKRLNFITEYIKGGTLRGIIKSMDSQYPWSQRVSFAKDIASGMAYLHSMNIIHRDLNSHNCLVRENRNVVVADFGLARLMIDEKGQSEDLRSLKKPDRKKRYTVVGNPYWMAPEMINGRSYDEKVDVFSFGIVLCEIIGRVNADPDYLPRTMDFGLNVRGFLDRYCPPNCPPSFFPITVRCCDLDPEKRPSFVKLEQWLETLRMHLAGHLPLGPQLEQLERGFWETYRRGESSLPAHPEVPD

SMILES	inhibition at 10 µM (CYP2D6)	t1/2 (Liver microsome [2])	t1/2 (Liver microsome [3])	inhibition at 10 µM (CYP1A2)	bioavailability [6]	Vd [7]	other results
COc1c(C=O)c(O)cc2c1C(=O)c1ccccc1C2=O [DAMNACANTHAL]							IC50 (LIM domain kinase 1 [1]): 800 nM
Cc1c[nH]c2ncnc(-c3ccc(NC(=O)N(CCO)c4cccc(Cl)c4)cc3)c12	2%	22 min	20 min	-19%			IC50 (LIM domain kinase 1 [4]): 372 nM
COc1ccc(NC(=O)N(CCN2CCCC2)c2ccc(-c3ncnc4[nH]cc(C)c34)cc2)cc1							IC50 (LIM domain kinase 1 [5]): 9240 nM
Cc1[nH]c2ncnc(-c3ccc(NC(=O)N(CCN)c4ccc(Cl)cc4)c(F)c3)c2c1C		> 120 min	> 120 min				inhibition at 10 µM (CYP3A4): -11%
COc1ccc(N(CCN)C(=O)Nc2ccc(-c3ncnc4[nH]cc(C)c34)cc2)cc1					0%	6 L/kg	
Cc1ccc(N(CCO)C(=O)Nc2ccc(-c3ncnc4[nH]cc(C)c34)cc2)cc1	-4%	56 min	39 min	-5%	24%	0.3 L/kg	inhibition at 10 µM (CYP3A4): 5%
Cc1c[nH]c2ncnc(-c3ccc(NC(=O)N(CCO)c4ccccc4Cl)cc3)c12	1%		38 min	-4%	21%	0.7 L/kg	inhibition at 0.1 µM (PC-3 [8]): 13%; inhibition at 10 µM (PC-3 [9]): 81%; inhibition at 1 µM (PC-3 [10]): 76.1%; inhibition at 1 µM (PC-3 [11]): 83%; IC50 (LIM domain kinase 1 [4]): 420 nM
Cc1[nH]c2ncnc(-c3ccc(NC(=O)Nc4cccc(C(=O)NC(C)C)c4)cc3)c2c1C		47 min	> 120 min				
COc1ccc(NC(=O)N(CCN2CCCCC2)c2ccc(-c3ncnc4[nH]cc(C)c34)cc2)cc1							IC50 (LIM domain kinase 1 [5]): > 10000 nM
Cc1c[nH]c2ncnc(-c3ccc(NC(=O)Nc4cccc(C(=O)NC(C)C)c4)c(F)c3)c12		27 min	55 min		0%	0.7 L/kg	IC50 (LIM domain kinase 1 [4]): 4000 nM
Cc1[nH]c2ncnc(-c3ccc(NC(=O)N(CCO)c4ccc(Cl)cc4)c(F)c3)c2c1C	8%	99 min	44 min	40%	29%	0.5 L/kg	
Cc1c[nH]c2ncnc(-c3ccc(NC(=O)N(CCN)c4ccc(Cl)cc4)cc3)c12					0%	4 L/kg	
COCCN(C(=O)Nc1ccc(-c2ncnc3[nH]c(C)c(C)c23)cc1F)c1ccc(Cl)cc1			13 min			1.2 L/kg	inhibition at 10 µM (CYP2C9): 50%; IC50 (LIM domain kinase 1 [4]): 250 nM
Cc1c[nH]c2ncnc(-c3ccc(NC(=O)N(CCO)c4ccc(Cl)cc4)cc3)c12	4%	> 120 min	73 min	-12%	20%	0.5 L/kg	IC50 (LIM domain kinase 1 [4]): 118 nM
Cc1[nH]c2ncnc(-c3ccc(NC(=O)N(CCN(C)C)c4ccc(Cl)cc4)c(F)c3)c2c1C	20%	19 min	23 min			1.5 L/kg	inhibition at 10 µM (CYP2C9): -23%; inhibition at 10 µM (CYP3A4): -9%; IC50 (LIM domain kinase 1 [4]): 320 nM
CC(C)NC(=O)c1cccc(NC(=O)Nc2ccc(-c3ncnc4[nH]cnc34)cc2)c1							IC50 (LIM domain kinase 1 [5]): 1530 nM; IC50 [12]: 5570 nM
COc1ccc(N(CCO)C(=O)Nc2ccc(-c3ncnc4[nH]cc(C)c34)cc2)cc1	-4%	56 min	40 min	-8%	24%	0.3 L/kg	inhibition at 10 µM (CYP2C9): 8%; inhibition at 10 µM (CYP3A4): 2%
Cc1c[nH]c2ncnc(-c3ccc(NC(=O)N(CCO)c4ccccc4)cc3)c12	5%	87 min	30 min	-16%	36%	0.4 L/kg	inhibition at 0.1 µM (PC-3 [8]): 16.5%; inhibition at 10 µM (PC-3 [9]): 77.5%; inhibition at 1 µM (PC-3 [10]): 74%; inhibition at 1 µM (PC-3 [11]): 76%
Cc1c[nH]c2ncnc(-c3ccc(NC(=O)N(CCO)c4ccc(F)cc4)cc3)c12	3%	44 min	52 min	-4%			
CC(C)NC(=O)c1cccc(NC(=O)Nc2ccc(-c3ccnc4[nH]ccc34)cc2)c1							IC50 (LIM domain kinase 1 [5]): > 10000 nM
Cc1c[nH]c2ncnc(-c3ccc(NC(=O)N(CCN(C)C)c4ccc(Cl)cc4)cc3)c12					0%	17.1 L/kg	
Cc1c[nH]c2ncnc(-c3ccc(NC(=O)Nc4ccccc4)cc3)c12					16%	0.5 L/kg	
COc1cccc(N(CCO)C(=O)Nc2ccc(-c3ncnc4[nH]cc(C)c34)cc2)c1	3%	38 min	21 min	3%			
Cc1c[nH]c2ncnc(-c3ccc(NC(=O)Nc4cccc(C(=O)NC(C)C)c4)cc3)c12					0%	0.3 L/kg	
COc1ccccc1N(CCO)C(=O)Nc1ccc(-c2ncnc3[nH]cc(C)c23)cc1							IC50 [12]: > 10000 nM
